From ChEMBL document CHEMBL3217473, “Discovery of a structurally novel, drug-like and potent inhibitor of peptidylarginine deiminase” (Medchemcomm, 2013)
The source made the active and inactive calls. The rule behind the calls is not given here.

How the values were obtained:
[1] = system: HEK-293T; assay: Inhibition of thapsigargin-induced cell death in human HEK293T cells overexpressing human recombinant PAD3 assessed as increase in cell survival at 100 uM treated 15 mins prior to thapsigargin addition measured after 24 hrs drug treatment by methylene blue assay; type: functional, cell-based
[2] = system: NSC; assay: Inhibition of thapsigargin-induced cell death in human NSC assessed as increase in cell survival at >10 uM treated 15 mins prior to thapsigargin addition measured after 24 hrs drug treatment by methylene blue assay; type: functional, cell-based
[3] = system: NSC; assay: Inhibition of thapsigargin-induced cell death in human NSC assessed as cell survival at <=1 uM treated 15 mins prior to thapsigargin addition measured after 24 hrs drug treatment by methylene blue assay; type: functional, cell-based
[4] = system: HEK-293T; assay: Inhibition of thapsigargin-induced cell death in human HEK293T cells overexpressing human recombinant PAD3 assessed as increase in cell survival at 10 uM treated 15 mins prior to thapsigargin addition measured after 24 hrs drug treatment by methylene blue assay; type: functional, cell-based
[5] = system: NSC; assay: Inhibition of thapsigargin-induced cell death in human NSC assessed as increase in cell survival up to 1 mM treated 15 mins prior to thapsigargin addition measured after 24 hrs drug treatment by methylene blue assay; type: functional, cell-based
[6] = system: NSC; assay: Inhibition of thapsigargin-induced cell death in human NSC assessed as increase in cell survival at 100 nM treated 15 mins prior to thapsigargin addition measured after 24 hrs drug treatment by methylene blue assay; type: functional, cell-based
[7] = system: NSC; assay: Cytotoxicity against human NSC assessed as decrease in cell survival at 0.1 to 1000 uM after 24 hrs by methylene blue assay; type: cell-based
[8] = target: T1, Protein-arginine deiminase type-3 (Homo sapiens) (UniProt Q9ULW8); assay: Competitive reversible inhibition of human recombinant PAD3 expressed in HEK293T cells assessed as rate of citrullination of BAEE at 10 to 100 uM by Michaelis-Menten equation analysis using colorimetry; type: cell-based; conditions: HEK-293T
T1 sequence (whole entry): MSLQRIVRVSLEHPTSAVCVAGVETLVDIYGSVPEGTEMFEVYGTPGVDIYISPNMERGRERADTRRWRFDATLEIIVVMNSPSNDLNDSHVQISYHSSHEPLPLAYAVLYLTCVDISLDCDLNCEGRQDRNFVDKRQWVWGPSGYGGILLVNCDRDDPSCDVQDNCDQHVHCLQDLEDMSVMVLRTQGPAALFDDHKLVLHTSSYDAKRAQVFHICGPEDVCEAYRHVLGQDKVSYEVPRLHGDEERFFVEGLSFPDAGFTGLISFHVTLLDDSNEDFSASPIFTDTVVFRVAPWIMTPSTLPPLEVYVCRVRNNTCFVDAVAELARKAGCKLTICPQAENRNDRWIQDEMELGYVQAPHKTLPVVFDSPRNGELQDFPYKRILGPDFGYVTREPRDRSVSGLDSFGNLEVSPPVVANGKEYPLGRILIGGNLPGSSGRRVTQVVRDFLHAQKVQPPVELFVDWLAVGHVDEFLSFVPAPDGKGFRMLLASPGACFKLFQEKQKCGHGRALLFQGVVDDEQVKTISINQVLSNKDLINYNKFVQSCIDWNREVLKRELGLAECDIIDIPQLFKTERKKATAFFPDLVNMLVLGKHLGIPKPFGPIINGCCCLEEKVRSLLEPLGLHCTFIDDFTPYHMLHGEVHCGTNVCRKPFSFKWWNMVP

[9] = target: T1, Protein-arginine deiminase type-3 (Homo sapiens); assay: Inhibition of human recombinant PAD3 expressed in HEK293T cells assessed as conversion of BAEE to sodium benzoyl-L-citrulline at 100 uM by colorimetric analysis; type: cell-based; conditions: HEK-293T
[10] = target: T1, Protein-arginine deiminase type-3 (Homo sapiens); assay: Inhibition of human recombinant PAD3 expressed in HEK293T cells assessed as conversion of BAEE to sodium benzoyl-L-citrulline up to 1 mM by colorimetric analysis; type: cell-based; conditions: HEK-293T

Row | SMILES | inhibition [1] | inhibition [2] | inhibition [3] | inhibition [4] | inhibition [5] | inhibition [6] | Activity [7] | inhibition [8] | inhibition [9] | inhibition [10]
1 | N=C(CCl)NCCC[C@H](NC(=O)c1ccccc1)C(N)=O | Active | Active | inactive | – | – | – | – | – | – | –
2 | O=C1CN=C(NCCc2c[nH]c3ccccc23)N1 | – | – | – | Active | Active | Active | Non-toxic | Active | Active | Active
